From ChEMBL document CHEMBL5316327, “Design and Synthesis of Orally Active Quinolyl Pyrazinamides as Sigma 2 Receptor Ligands for the Treatment of Pancreatic Cancer” (J Med Chem, 2023)

Experiments:
[1] = target: Muscarinic acetylcholine receptor M2 (Homo sapiens, UniProt P08172); assay: Binding affinity to M2 receptor (unknown origin) assessed as inhibition constant
[2] = target: Alpha-2A adrenergic receptor (Homo sapiens, UniProt P08913); assay: Binding affinity to alpha2A receptor (unknown origin) assessed as inhibition constant
Chain of Alpha-2A adrenergic receptor (P08913 whole entry): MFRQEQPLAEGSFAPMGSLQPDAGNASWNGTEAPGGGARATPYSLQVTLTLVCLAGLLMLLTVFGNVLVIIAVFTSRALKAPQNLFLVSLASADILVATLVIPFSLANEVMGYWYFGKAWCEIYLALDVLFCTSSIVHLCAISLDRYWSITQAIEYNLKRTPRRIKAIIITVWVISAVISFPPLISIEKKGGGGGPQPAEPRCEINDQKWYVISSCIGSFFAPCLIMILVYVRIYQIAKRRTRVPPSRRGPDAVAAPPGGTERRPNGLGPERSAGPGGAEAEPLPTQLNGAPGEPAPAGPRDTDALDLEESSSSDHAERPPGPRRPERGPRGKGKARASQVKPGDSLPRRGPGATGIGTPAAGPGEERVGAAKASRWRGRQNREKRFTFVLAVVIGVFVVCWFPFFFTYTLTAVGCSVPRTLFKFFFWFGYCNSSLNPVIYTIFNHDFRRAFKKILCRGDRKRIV

[3] = target: Sigma intracellular receptor 2 (Homo sapiens, UniProt Q5BJF2); assay: Displacement of [3H][…]ditolylguanidine from human sigma 2 receptor transfected in human HEK293T cells assessed as inhibition constant by radioligand competition binding assay; format: cell-based
[4] = target: Kappa-type opioid receptor (Homo sapiens, UniProt P41145); assay: Binding affinity to KOR receptor (unknown origin) assessed as inhibition constant
Chain of Kappa-type opioid receptor (P41145 whole entry): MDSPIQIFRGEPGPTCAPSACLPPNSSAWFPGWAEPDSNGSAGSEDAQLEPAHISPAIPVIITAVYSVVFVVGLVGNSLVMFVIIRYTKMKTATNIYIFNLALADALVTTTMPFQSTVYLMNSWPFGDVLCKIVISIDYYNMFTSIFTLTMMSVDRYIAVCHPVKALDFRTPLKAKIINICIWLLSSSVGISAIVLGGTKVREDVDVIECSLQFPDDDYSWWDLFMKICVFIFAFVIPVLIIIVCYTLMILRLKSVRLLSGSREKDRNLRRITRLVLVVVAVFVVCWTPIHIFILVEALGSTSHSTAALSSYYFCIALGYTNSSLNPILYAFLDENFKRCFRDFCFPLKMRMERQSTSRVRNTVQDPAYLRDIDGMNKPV

[5] = target: Muscarinic acetylcholine receptor M1 (Homo sapiens, UniProt P11229); assay: Binding affinity to M1 receptor (unknown origin) assessed as inhibition constant
Chain of Muscarinic acetylcholine receptor M1 (P11229 whole entry): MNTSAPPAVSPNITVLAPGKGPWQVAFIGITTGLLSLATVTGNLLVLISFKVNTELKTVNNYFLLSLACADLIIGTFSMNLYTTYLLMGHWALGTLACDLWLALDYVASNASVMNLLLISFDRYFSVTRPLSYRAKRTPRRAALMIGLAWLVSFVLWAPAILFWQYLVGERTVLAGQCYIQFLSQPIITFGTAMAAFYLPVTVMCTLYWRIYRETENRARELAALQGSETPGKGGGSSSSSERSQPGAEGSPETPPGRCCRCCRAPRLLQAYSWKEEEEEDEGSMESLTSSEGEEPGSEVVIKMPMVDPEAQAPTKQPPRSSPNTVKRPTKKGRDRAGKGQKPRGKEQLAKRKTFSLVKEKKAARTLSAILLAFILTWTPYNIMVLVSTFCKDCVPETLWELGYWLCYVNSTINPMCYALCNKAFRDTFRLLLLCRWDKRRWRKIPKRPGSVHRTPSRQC

[6] = Metabolic stability in human liver microsomes assessed as half life at 10 uM measured upto 60 mins in presence of NADPH by LC-MS/MS analysis; format: ADME, Microsome; conditions: liver microsomes
[7] = target: D(1A) dopamine receptor (Homo sapiens, UniProt P21728); assay: Binding affinity to dopamine D1 receptor (unknown origin) assessed as inhibition constant
Chain of D(1A) dopamine receptor (P21728 whole entry): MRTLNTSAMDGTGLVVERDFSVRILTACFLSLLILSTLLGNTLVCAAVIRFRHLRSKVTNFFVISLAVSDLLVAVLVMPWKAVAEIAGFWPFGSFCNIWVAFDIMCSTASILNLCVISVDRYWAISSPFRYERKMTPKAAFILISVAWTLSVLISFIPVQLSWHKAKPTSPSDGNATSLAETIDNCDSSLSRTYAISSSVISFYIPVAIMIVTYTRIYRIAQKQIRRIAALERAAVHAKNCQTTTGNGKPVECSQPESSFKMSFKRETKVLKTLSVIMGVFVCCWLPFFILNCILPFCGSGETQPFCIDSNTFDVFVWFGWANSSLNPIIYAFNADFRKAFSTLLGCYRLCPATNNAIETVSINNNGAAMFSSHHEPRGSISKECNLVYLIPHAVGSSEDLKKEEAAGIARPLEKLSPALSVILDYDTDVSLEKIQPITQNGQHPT

[8] = target: 5-hydroxytryptamine receptor 1D (Homo sapiens, UniProt P28221); assay: Binding affinity to 5-HT1D receptor (unknown origin) assessed as inhibition constant
Chain of 5-hydroxytryptamine receptor 1D (P28221 whole entry): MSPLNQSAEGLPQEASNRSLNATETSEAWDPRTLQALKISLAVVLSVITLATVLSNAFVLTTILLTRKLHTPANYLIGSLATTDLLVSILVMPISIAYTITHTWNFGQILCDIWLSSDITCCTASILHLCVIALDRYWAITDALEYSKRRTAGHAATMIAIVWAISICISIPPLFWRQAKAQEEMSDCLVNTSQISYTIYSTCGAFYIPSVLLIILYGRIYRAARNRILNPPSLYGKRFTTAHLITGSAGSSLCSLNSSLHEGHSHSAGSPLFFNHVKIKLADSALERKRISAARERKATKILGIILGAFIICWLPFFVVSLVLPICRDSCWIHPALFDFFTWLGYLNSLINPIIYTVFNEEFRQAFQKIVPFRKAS

[9] = target: Muscarinic acetylcholine receptor M3 (Homo sapiens, UniProt P20309); assay: Binding affinity to M3 receptor (unknown origin) assessed as inhibition constant
Chain of Muscarinic acetylcholine receptor M3 (P20309 whole entry): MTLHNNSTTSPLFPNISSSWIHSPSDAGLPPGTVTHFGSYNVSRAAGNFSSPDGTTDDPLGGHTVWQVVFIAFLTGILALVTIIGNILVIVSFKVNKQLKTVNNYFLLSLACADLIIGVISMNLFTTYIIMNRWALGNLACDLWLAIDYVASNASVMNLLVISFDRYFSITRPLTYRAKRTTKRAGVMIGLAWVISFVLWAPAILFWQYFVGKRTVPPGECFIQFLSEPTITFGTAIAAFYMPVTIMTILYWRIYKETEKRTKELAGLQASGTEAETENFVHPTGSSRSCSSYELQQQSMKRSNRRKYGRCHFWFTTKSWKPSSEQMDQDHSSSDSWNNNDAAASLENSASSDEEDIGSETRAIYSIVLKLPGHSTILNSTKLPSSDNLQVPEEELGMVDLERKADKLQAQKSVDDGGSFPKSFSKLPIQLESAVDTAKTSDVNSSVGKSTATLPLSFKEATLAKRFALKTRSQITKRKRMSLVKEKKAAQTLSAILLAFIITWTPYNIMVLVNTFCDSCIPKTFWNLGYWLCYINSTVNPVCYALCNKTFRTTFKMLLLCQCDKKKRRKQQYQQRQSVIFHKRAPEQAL

[10] = target: D(3) dopamine receptor (Homo sapiens, UniProt P35462); assay: Binding affinity to dopamine D3 receptor (unknown origin) assessed as inhibition constant
[11] = target: Muscarinic acetylcholine receptor M5 (Homo sapiens, UniProt P08912); assay: Binding affinity to M5 receptor (unknown origin) assessed as inhibition constant
[12] = target: Alpha-2B adrenergic receptor (Homo sapiens, UniProt P18089); assay: Binding affinity to alpha2B receptor (unknown origin) assessed as inhibition constant
Chain of Alpha-2B adrenergic receptor (P18089 whole entry): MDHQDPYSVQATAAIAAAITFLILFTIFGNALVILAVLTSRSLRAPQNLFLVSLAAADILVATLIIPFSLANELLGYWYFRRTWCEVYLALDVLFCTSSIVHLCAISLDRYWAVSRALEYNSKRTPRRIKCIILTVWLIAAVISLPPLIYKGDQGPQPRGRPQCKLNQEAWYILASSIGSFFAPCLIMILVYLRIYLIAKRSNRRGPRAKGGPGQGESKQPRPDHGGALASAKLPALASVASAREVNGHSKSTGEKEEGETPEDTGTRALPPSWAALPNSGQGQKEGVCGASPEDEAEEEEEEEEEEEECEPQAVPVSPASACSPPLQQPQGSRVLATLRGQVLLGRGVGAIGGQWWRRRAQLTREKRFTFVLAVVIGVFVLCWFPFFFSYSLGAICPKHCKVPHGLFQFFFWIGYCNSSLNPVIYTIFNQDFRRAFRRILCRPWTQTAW

[13] = target: Histamine H2 receptor (Homo sapiens, UniProt P25021); assay: Binding affinity to histamine H2 receptor (unknown origin) assessed as inhibition constant
Chain of Histamine H2 receptor (P25021 whole entry): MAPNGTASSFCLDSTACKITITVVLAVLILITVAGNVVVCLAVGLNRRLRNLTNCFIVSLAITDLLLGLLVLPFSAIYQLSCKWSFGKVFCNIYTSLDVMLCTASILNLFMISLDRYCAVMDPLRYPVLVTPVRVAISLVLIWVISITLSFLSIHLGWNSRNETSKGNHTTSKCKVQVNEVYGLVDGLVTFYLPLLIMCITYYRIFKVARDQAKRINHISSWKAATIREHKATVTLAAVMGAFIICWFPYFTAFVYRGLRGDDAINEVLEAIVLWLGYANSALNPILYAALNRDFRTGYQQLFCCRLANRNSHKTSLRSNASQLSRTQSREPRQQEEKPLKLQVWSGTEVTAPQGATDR

[14] = target: Sigma non-opioid intracellular receptor 1 (Homo sapiens, UniProt Q99720); assay: Displacement of [3H](+)-pentazocine from human sigma 1 receptor transfected in human HEK293T cells assessed as inhibition constant by radioligand competition binding assay; format: cell-based
[15] = target: D(1B) dopamine receptor (Homo sapiens, UniProt P21918); assay: Binding affinity to dopamine D5 receptor (unknown origin) assessed as inhibition constant
[16] = target: 5-hydroxytryptamine receptor 2B (Homo sapiens, UniProt P41595); assay: Binding affinity to 5-HT2B receptor (unknown origin) assessed as inhibition constant
Chain of 5-hydroxytryptamine receptor 2B (P41595 whole entry): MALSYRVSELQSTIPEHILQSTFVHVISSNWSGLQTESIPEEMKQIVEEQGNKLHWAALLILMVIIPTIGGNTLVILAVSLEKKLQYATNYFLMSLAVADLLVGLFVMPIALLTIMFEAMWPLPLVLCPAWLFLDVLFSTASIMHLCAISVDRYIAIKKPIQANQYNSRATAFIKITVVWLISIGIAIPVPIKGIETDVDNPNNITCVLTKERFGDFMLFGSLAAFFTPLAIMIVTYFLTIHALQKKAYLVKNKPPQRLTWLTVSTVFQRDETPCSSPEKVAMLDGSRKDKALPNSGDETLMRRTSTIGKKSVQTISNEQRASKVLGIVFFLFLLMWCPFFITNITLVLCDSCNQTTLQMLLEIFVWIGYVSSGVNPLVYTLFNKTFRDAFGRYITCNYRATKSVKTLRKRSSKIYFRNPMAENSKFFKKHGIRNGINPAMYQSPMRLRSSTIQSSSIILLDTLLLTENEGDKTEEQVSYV

[17] = target: Muscarinic acetylcholine receptor M4 (Homo sapiens, UniProt P08173); assay: Binding affinity to M4 receptor (unknown origin) assessed as inhibition constant
Chain of Muscarinic acetylcholine receptor M4 (P08173 whole entry): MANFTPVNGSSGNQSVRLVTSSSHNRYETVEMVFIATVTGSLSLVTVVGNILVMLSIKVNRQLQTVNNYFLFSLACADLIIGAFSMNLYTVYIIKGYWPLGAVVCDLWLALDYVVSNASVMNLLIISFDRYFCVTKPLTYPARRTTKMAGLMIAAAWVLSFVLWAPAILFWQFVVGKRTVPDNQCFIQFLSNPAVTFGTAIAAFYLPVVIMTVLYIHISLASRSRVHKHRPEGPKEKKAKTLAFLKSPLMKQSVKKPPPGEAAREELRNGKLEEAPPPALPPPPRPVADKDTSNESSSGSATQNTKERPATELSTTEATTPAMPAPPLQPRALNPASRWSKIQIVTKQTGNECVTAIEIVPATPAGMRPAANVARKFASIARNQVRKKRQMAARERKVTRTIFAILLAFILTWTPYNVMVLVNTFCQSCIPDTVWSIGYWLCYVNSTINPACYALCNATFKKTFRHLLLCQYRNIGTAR

[18] = target: Histamine H3 receptor (Homo sapiens, UniProt Q9Y5N1); assay: Binding affinity to histamine H3 receptor (unknown origin) assessed as inhibition constant
[19] = Metabolic stability in mouse liver microsomes assessed as half life at 10 uM measured upto 60 mins in presence of NADPH by LC-MS/MS analysis; format: ADME, Microsome; conditions: 1 h
[20] = target: 5-hydroxytryptamine receptor 1A (Homo sapiens, UniProt P08908); assay: Binding affinity to 5-HT1A receptor (unknown origin) assessed as inhibition constant
Chain of 5-hydroxytryptamine receptor 1A (P08908 whole entry): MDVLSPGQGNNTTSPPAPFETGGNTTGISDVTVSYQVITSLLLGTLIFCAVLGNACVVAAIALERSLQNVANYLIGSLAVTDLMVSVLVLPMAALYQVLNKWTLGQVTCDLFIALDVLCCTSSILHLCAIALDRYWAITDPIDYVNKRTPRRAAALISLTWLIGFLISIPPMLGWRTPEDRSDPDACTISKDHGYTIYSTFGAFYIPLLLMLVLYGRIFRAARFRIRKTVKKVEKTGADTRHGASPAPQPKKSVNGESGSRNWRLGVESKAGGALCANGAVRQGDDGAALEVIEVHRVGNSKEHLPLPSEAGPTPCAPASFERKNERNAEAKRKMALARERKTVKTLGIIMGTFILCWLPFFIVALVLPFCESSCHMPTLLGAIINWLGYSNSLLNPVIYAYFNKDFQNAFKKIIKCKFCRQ

A Ki [1] of 386 nM, a Ki [2] of 673 nM and a Ki [3] of 10 nM were found for `CCN(CC)CCCC(C)Nc1cnc(C(=O)Nc2cc(F)cc3cccnc23)cn1` (stereo not given) in this work. The Ki [4] was 713 nM, the Ki [5] was 717 nM and the half-life at 10 µM [6] was > 60 min. It also gave a Ki [7] of 5470 nM, a Ki [8] of 99 nM and a Ki [9] of 1350 nM. It also gave a Ki [10] of 726 nM, a Ki [11] of 373 nM and a Ki [12] of 2010 nM. For the same molecule, the Ki [13] was 750 nM, the Ki [14] was 165 nM and the Ki [15] was 2830 nM. The Ki [16] was > 10000 nM, the Ki [17] was 279 nM and the Ki [18] was 1200 nM. It also gave a t1/2 [19] of 45.3 min and a Ki [20] of 743 nM.
